Assay results: patent US20210147498A1, “USE OF GRAM-NEGATIVE LYSIN-ANTIMICROBIAL PEPTIDE (AMP) POLYPEPTIDE CONSTRUCTS IN PULMONARY SURFACTANT AND BIOFILMS” (priority 2018, published 2021)
Read-outs that look alike come from different tables or passages of the source.

Tested on: carbapenem-resistant P. aeruginosa strains
Experiment: microbe, parasite or virus in culture
Assay type: cell-based, Pseudomonas aeruginosa
Details: for MIC: Pseudomonas aeruginosa; for MIC Combination / MIC Alone: vs. WC-452
Experimental: Such resensitization may be determined by combining the present lysins or lysin-AMP polypeptide constructs with an antibiotic in a checkerboard assay as described herein. Antibiotic-resistant bacteria, such as carbapenem-resistant P. aeruginosa, are added to the lysin or lysin-AMP polypeptide construct combination. […] See Clinical and Laboratory Standards Institute (CLSI), CLSI. […] M100 Performance Standards for Antimicrobial Susceptibility Testing; 29th Edition. Clinical and Laboratory Standards Institute, Wayne, Pa., which is herein incorporated by reference in its entirety.
Up to seven carbapenem-resistant isolates were assessed. […] See Clinical and Laboratory Standards Institute (CLSI), CLSI. […] M100 Performance Standards for Antimicrobial Susceptibility Testing; 29th Edition. Clinical and Laboratory Standards Institute, Wayne, Pa.

## C[C@@H](O)[C@H]1C(=O)N2C(C(=O)O)=C(SCCN=CN)C[C@H]12 [Imipenem, imipenem]
GN121, read-out: MIC (μg/mL) Alone, isolate PA20, checkerboard Imipenem + GN121
  MIC: 16 µg/mL
GN121, read-out: MIC (μg/mL) Alone, isolate PA21, checkerboard Imipenem + GN121
  MIC: 32 µg/mL
GN121, read-out: MIC (μg/mL) Alone, isolate PA23, checkerboard Imipenem + GN121
  MIC: 16 µg/mL
GN123, read-out: MIC (μg/mL) Alone, isolate PA19, checkerboard IMIPENEM + GN123
  MIC: 32 µg/mL
GN123, read-out: MIC (μg/mL) Alone, isolate PA20, checkerboard IMIPENEM + GN123
  MIC: 16 µg/mL
GN123, read-out: MIC (μg/mL) Alone, isolate PA21, checkerboard IMIPENEM + GN123
  MIC: 32 µg/mL
GN123, read-out: MIC (μg/mL) Alone, isolate PA22, checkerboard IMIPENEM + GN123
  MIC: 16 µg/mL
GN123, read-out: MIC (μg/mL) Alone, isolate PA23, checkerboard IMIPENEM + GN123
  MIC: 8 µg/mL
GN123, read-out: MIC (μg/mL) Alone, isolate PA24, checkerboard IMIPENEM + GN123
  MIC: 32 µg/mL
GN123, read-out: MIC (μg/mL) Alone, isolate WC-452, checkerboard IMIPENEM + GN123
  MIC: 16 µg/mL
Isolate PA19
  susceptibility category of the isolate, carbapenem Alone: (R) ((R) = resistant)
Isolate PA19, IMIPENEM combined with GN123
  MIC (μg/mL) Combination: 0.5 µg/mL
Isolate PA19, Imipenem combined with GN121
  MIC (μg/mL) Combination: 1 µg/mL
Isolate PA19, combined with GN121
  susceptibility category of the isolate, carbapenem in Combination: (S) ((S) = sensitive)
Isolate PA19, combined with GN123
  susceptibility category of the isolate, carbapenem in Combination: (S) ((S) = sensitive)
Isolate PA20
  susceptibility category of the isolate, carbapenem Alone: (R) ((R) = resistant)
Isolate PA20, IMIPENEM combined with GN123
  MIC (μg/mL) Combination: 1 µg/mL
Isolate PA20, Imipenem combined with GN121
  MIC (μg/mL) Combination: 0.5 µg/mL
Isolate PA20, combined with GN121
  susceptibility category of the isolate, carbapenem in Combination: (S) ((S) = sensitive)
Isolate PA20, combined with GN123
  susceptibility category of the isolate, carbapenem in Combination: (S) ((S) = sensitive)
Isolate PA21
  susceptibility category of the isolate, carbapenem Alone: (R) ((R) = resistant)
Isolate PA21, IMIPENEM combined with GN123
  MIC (μg/mL) Combination: 0.5 µg/mL
Isolate PA21, Imipenem combined with GN121
  MIC (μg/mL) Combination: 1 µg/mL
Isolate PA21, combined with GN121
  susceptibility category of the isolate, carbapenem in Combination: (S) ((S) = sensitive)
Isolate PA21, combined with GN123
  susceptibility category of the isolate, carbapenem in Combination: (S) ((S) = sensitive)
Isolate PA22
  susceptibility category of the isolate, carbapenem Alone: (R) ((R) = resistant)
Isolate PA22, IMIPENEM combined with GN123
  MIC (μg/mL) Combination: 2 µg/mL
Isolate PA22, Imipenem combined with GN121
  MIC (μg/mL) Combination: 2 µg/mL
Isolate PA22, combined with GN121
  susceptibility category of the isolate, carbapenem in Combination: (S) ((S) = sensitive)
Isolate PA22, combined with GN123
  susceptibility category of the isolate, carbapenem in Combination: (S) ((S) = sensitive)
Isolate PA23
  susceptibility category of the isolate, carbapenem Alone: (R) ((R) = resistant)
Isolate PA23, IMIPENEM combined with GN123
  MIC (μg/mL) Combination: 0.25 µg/mL
Isolate PA23, Imipenem combined with GN121
  MIC (μg/mL) Combination: 0.125 µg/mL
Isolate PA23, combined with GN121
  susceptibility category of the isolate, carbapenem in Combination: (S) ((S) = sensitive)
Isolate PA23, combined with GN123
  susceptibility category of the isolate, carbapenem in Combination: (S) ((S) = sensitive)
Isolate PA24
  susceptibility category of the isolate, carbapenem Alone: (R) ((R) = resistant)
Isolate PA24, IMIPENEM combined with GN123
  MIC (μg/mL) Combination: 2 µg/mL
Isolate PA24, Imipenem combined with GN121
  MIC (μg/mL) Combination: 1 µg/mL
Isolate PA24, combined with GN121
  susceptibility category of the isolate, carbapenem in Combination: (S) ((S) = sensitive)
Isolate PA24, combined with GN123
  susceptibility category of the isolate, carbapenem in Combination: (S) ((S) = sensitive)
Isolate WC-452
  susceptibility category of the isolate, carbapenem Alone: (R) ((R) = resistant)
Isolate WC-452, IMIPENEM combined with GN123
  MIC (μg/mL) Combination: 1 µg/mL
Isolate WC-452, combined with GN123
  susceptibility category of the isolate, carbapenem in Combination: (S) ((S) = sensitive)
Isolate WC-452, combined with GN351
  susceptibility category of the isolate, carbapenem in Combination: (S) ((S) = sensitive)
Isolate WC-452, combined with GN370
  susceptibility category of the isolate, carbapenem in Combination: (S) ((S) = sensitive)
Isolate WC-452, combined with GN428
  susceptibility category of the isolate, carbapenem in Combination: (S) ((S) = sensitive)
IPM combined with GN351
  MIC Combination: 0.5 µg/mL
IPM combined with GN370
  MIC Combination: 0.5 µg/mL
IPM combined with GN428
  MIC Combination: 1 µg/mL
Checkerboard IPM + GN351
  MIC Alone: 16 µg/mL
Checkerboard IPM + GN370
  MIC Alone: 16 µg/mL
Checkerboard IPM + GN428
  MIC Alone: 16 µg/mL
